Data on 7 molecules can be found in US20240150290A1, “HETEROCYCLIC P2Y14 RECEPTOR ANTAGONISTS” (priority 2021, published 2024).

Values after ≈ are worked out from the molar mass of the structure shown. Read-outs that look alike come from different tables or passages of the source. Marks after values point to notes of the source that are not given here.

Data set [1] is described as follows: HPLC-based lipophilicity (Log D7.4). Conditions: for chromatographic logD: pH 7.4.
A short description of data set [2]: Aqueous solubility, pION method.
Another data set concerns the target T1, hP2Y14R (Homo sapiens, UniProt Q15391).
T1 construct: expressed in transfected cells; host or cells: CHO cells
T1 sequence (Q15391 1-338): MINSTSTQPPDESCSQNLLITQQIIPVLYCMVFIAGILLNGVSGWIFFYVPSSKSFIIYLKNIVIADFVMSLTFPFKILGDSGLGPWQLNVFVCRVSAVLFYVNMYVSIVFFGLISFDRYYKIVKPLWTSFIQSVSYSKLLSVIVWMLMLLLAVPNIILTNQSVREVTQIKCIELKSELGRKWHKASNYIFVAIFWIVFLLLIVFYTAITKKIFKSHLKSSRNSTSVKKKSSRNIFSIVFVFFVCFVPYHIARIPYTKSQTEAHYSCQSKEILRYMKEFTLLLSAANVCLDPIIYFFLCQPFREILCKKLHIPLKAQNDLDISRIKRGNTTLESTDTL
Description: Inhibition of fluorescent antagonist binding in whole hP2Y14R-expressing CHO cells (flow cytometry).

The mark [3] stands for this setting: Table 2, whole hP2Y14R-CHO cells, 20 nM fluorescent antagonist 3, mean+SEM, n = 3-6, read-out: IC50.

`O=C(O)c1cc(-c2ccc(C3C4CCC3CNC4)cc2)c2ccc(-c3ccc(C(F)(F)F)cc3)cc2c1` (stereo not shown) [Compound 133, 4-(4-(3-Azabicyclo[3.2.1]octan-8-yl)phenyl)-7-(4-(trifluoromethyl)phenyl)-2-naphthoic acid] registered a chromatographic logD in data set [1] of 2.97 ± 0.02. Further, the solubility was found to be 0.32 ± 0.01 µg/mL (≈ 0.638 µM) in data set [2] (pH 4, aqueous buffer) and 0.16 ± 0.01 µg/mL (≈ 0.319 µM) in data set [2] (pH 7.4, aqueous buffer). At hP2Y14R, this molecule gave an IC50 of 0.696 ± 0.1 µM.

The molecule `O=C(O)c1cc(-c2ccc(C34CCNCC3C4(F)F)cc2)c2ccc(-c3ccc(C(F)(F)F)cc3)cc2c1` (stereo not shown) [Compound 109, 4-(4-(7,7-Difluoro-3-azabicyclo[4.1.0]heptan-6-yl)phenyl)-7-(4-(trifluoromethyl)phenyl)-2-naphthoic acid] registered a chromatographic logD in data set [1] of 2.71 ± 0.33. In data set [2], the “Solubility (ug/mL) pH 4” value is recorded as 1.13 ± 0.34 ug/mL and the “Solubility (ug/mL) pH 7.4” value is 0.25 ± 0.01 ug/mL. Further, on hP2Y14R (setting [3]), the IC50 worked out at 0.211 ± 0.036 µM.

In turn, `N[C@@H]1C[C@H](CO)C[C@H]1c1ccc(-c2cc(C(=O)O)cc3cc(-c4ccc(C(F)(F)F)cc4)ccc23)cc1` [Compound 136, 4-(4-((1S,2R,4R)-2-Amino-4-(hydroxymethyl)cyclopentyl)phenyl)-7-(4-(trifluoromethyl)phenyl)-2-naphthoic acid] yielded a chromatographic logD in data set [1] of 1.06 ± 0.05. In data set [2], the “Solubility (ug/mL) pH 4” value was found to be 3.74 ± 0.09 ug/mL and the “Solubility (ug/mL) pH 7.4” value is listed as 0.93 ± 0.20 ug/mL. Also, at hP2Y14R (setting [3]), the concentration for half-maximal inhibition (IC50) came out at 0.1 ± 0.019 µM.

For `N[C@@H]1C[C@H](C(=O)O)C[C@H]1c1ccc(-c2cc(C(=O)O)cc3cc(-c4ccc(C(F)(F)F)cc4)ccc23)cc1` [Compound 140, 4-(4-((1S,2R,4R)-2-Amino-4-carboxycyclopentyl)phenyl)-7-(4-(trifluoromethyl)phenyl)-2-naphthoic acid], the “Log D7.4” value in data set [1] (HPLC-based lipophilicity) is recorded as −0.478 ± 0.050. For the same molecule, in data set [2], the “Solubility (ug/mL) pH 4” value came to 0.34 ± 0.07 ug/mL and the “Solubility (ug/mL) pH 7.4” value turned out to be 3.92 ± 0.10 ug/mL. For the same molecule, the IC50 on hP2Y14R (setting [3]) came out at 0.165 ± 0.051 µM.

For `N[C@H]1C[C@@H](C(=O)O)[C@H](c2ccc(-c3cc(C(=O)O)cc4cc(-c5ccc(C(F)(F)F)cc5)ccc34)cc2)C1` [Compound 139, 4-(4-((1R,2R,4R)-4-Amino-2-carboxycyclopentyl)phenyl)-7-(4-(trifluoromethyl)phenyl)-2-naphthoic acid], in data set [1] (HPLC-based lipophilicity), the “Log D7.4” value is on record as −0.568 ± 0.038. Further, in data set [2], the “Solubility (ug/mL) pH 4” value worked out at 1.05 ± 0.20 ug/mL and the “Solubility (ug/mL) pH 7.4” value worked out at 5.52 ± 0.21 ug/mL. Moreover, the IC50 on hP2Y14R (setting [3]) is 0.102 ± 0.025 µM.

For the molecule `O=C(O)c1cc(-c2ccc(C3C4CCC3CNC4)cc2)c2ccc(-c3ccc(C(F)(F)F)cc3)cc2c1` (stereo not shown) [Compound 129, 4-(4-(3-Azabicyclo[3.2.1]octan-8-yl)phenyl)-7-(4-(trifluoromethyl)phenyl)-2-naphthoic acid], the “Log D7.4” value in data set [1] (calculated from retention factor difference between ligands and 1 (k = 3.41)) is 2.33 ± 0.09^f. In data set [2], the “Solubility (ug/mL) pH 4” value amounted to 0.38 ± 0.04 ug/mL and the “Solubility (ug/mL) pH 7.4” value was 0.13 ± 0.00 ug/mL. Moreover, at hP2Y14R (setting [3]), the IC50 was 0.0383 ± 0.002 µM.

Regarding `CC1CNCCC1c1ccc(-c2cc(C(=O)O)cc3cc(-c4ccc(C(F)(F)F)cc4)ccc23)cc1` (mixture of isomers) [Compound 106, 4-(4-(3-Methylpiperidin-4-yl)phenyl)-7-(4-(trifluoromethyl)phenyl)-2-naphthoic acid], in data set [1], the chromatographic logD amounted to 2.79 ± 0.09. Moreover, in data set [2], the “Solubility (ug/mL) pH 4” value was 1.36 ± 0.21 ug/mL and the “Solubility (ug/mL) pH 7.4” value came to 0.03 ± 0.02 ug/mL. For the same molecule, the IC50 at hP2Y14R (setting [3]) is 0.0209 ± 0.0036 µM.
